This is an account of results in US20240407363A1 (priority 2021, published 2024).

This experiment deals with Xanthomonas perforans. Put plainly: Field trials on hexanoic acid, bacterial spot of tomato (cv. Red bounty). To be noted: for AUDPC / BS last rating of bacterial spot severity / YIELD: cv. Red bounty, ManKocide 2.1 mg/ml foliar spray, hexanoic acid 0.5 mg/ml drench (50 ml/plant). The format is in vivo. The method, then:
Table 3 notes: Data from 2 repeated field experiments: BS1/BS2=bacterial disease severity in Exp. 1/Exp. 2; AUDPC1/AUDPC2=area under the disease progress curve in Exp. 1/Exp. 2; YIELD 1/YIELD 2=fruit yield (Kg/plant) in Exp/1/Exp.2; KOCIDER=Kocide® 3000 (Cu bactericide) at 1.75 lb/acre (=2.1 mg/mL) by sprays; MANKO=Mankocide® (Cu+mancozeb) at 1.75 lb/acre by foliar spray; HEXANO=hexanoic acid at 0.5 mg/mL (=500 mg/L) by root drench weekly for a total of 8 weeks.
It is noted regarding the table above that: (1) data in this table were from 2 repeated field experiments, whereas those in FIG. 9 were from a greenhouse preliminary test; and (2) in the field experiments, Hx at 500 mg/L was weekly applied as soil drench for a total of 8 weeks. In the greenhouse test (FIG. 9), Hx at 512 mg/L was applied only one time as soil drench at 1, 3, or 7 days prior to the bacterial inoculation, respectively.
Tomato seedlings were transplanted in fall for the first trial (trial 1) and spring for the second trial (trial 2). Treatments were started about two weeks after transplanting following weekly applications for a total of eight weeks. Tomato plants were inoculated with the pathogen Xanthomonas perforans (1-5×10^6 cfu/ml) the following day in the afternoon after the third treatment. Disease severity was rated weekly when bacterial spot symptoms were observed, and area under the disease progress curve (AUDPC) was calculated. Tomato fruit were harvested two to three times for each trial and graded according to the USDA standard. Total fruit yield in each treatment and the untreated control (CK) was subjected to statistical analysis using SAS (version 9.2, SAS Institute Inc., Cary, NC, USA). Disease severity of last rating and AUDPC from each trial were analyzed and presented.
Hexanoic acid at 0.5 mg/ml was drenched (50 ml/plant) to the base of each plant. This chemical was evaluated in two independent trials. Tomato cultivar was ‘Red bounty’.

The mark [1] stands for this setting: 0.5 mg/ml applied as root drench (50 ml/plant).
The mark [2] stands for this setting: Experiment 1, Kocide 3000 1.75 lb/acre (=2.1 mg/mL) sprays, Mankocide 1.75 lb/acre foliar spray, hexanoic acid 0.5 mg/mL root drench weekly for 8 weeks.
[3] abbreviates: Experiment 2, Kocide 3000 1.75 lb/acre (=2.1 mg/mL) sprays, Mankocide 1.75 lb/acre foliar spray, hexanoic acid 0.5 mg/mL root drench weekly for 8 weeks.

Molecules are shown by their SMILES.

Consider `CCCCCC(=O)O` [Hexanoic acid, hexanoic acid], for which, under setting [1], the “effect on disease reduction compared to ManKocide at the label rate of 2.1 mg/ml” value was “even better than ManKocide®”; the “marketable tomato fruit yield compared to controls” value was “greater than the untreated control (CK) and ManKocide® in one of the two independent trials”. The “bacterial spot disease severity and AUDPC compared to the untreated control (CK)” value (0.5 mg/ml applied as root drench (50 ml/plant), Homestead, FL 2020-2021) is “significantly (P<0.05) reduced bacterial spot disease severity at the last rating and the overall disease progress”. Also, under setting [2], the “AUDPC1 area under the disease progress curve” value was determined as 95.93 c, the “BS1 bacterial disease severity” value was found to be 10.8 d % and the YIELD1 fruit yield is given as 8.83 a Kg/plant. Further, under setting [3], the “AUDPC2 area under the disease progress curve” value came to 390.1 c, the “BS2 bacterial disease severity” value came to 41.3 c % and the YIELD2 fruit yield was found to be 2.76 a Kg/plant. Besides, under “Trial 1”, the AUDPC worked out at 95.9 c, the “BS last rating of bacterial spot severity” value worked out at 10.8 c % and the YIELD came out at 8.83 a kg/plant. Also, for the setting “Trial 2”, the AUDPC is 390.1 c, the “BS last rating of bacterial spot severity” value was found to be 41.3 b % and the YIELD was 2.76 a kg/plant.
